According to patent publication US10584132B2, “SHMT inhibitors” (The Trustees of Princeton University, priority 2016, dated 2020):
One block for each compound: values may come before it.

What was measured:
LogP Value = assay type: physicochemical
HCT-116 ΔSHMT2 cells = assay: Cell growth assay, HCT-116 SHMT2 deletion (knock-out) cells; assay type: cell-based, human
Protocol: (§1) The described cell lines for Examples 8 and 9 are cultured in 96-well plates in Dulbecco's modified eagle media (DMEM) without pyruvate (CELLGRO) with 10% dialysed fetal bovine serum (Invitrogen) in 5% CO2 at 37° C. Approximately 2,500 cells are plated in each well in 90 uL of media. After 24 hours cells are treated with various concentrations of inhibitor (time=0 hours), with or without formate. Growth was assessed at multiple time points (time=0, 24, 48, 72 hours) through measurement of fluorescence at 595 nm (excitation at 535 nm) on a BioTek micro titer plate reader after incubation with resazurin (0.01 mg/mL for 1.5 hours). IC50 curves are generated from percent inhibition of growth at 72 hours.
Clonal deletion cell lines of SHMT1, SHMT2, and SHMT1/2 were generated from the human colorectal carcinoma cell line HCT-116. Paired Cas9 nickase (Cas9n) containing constructs that encoded single-guide RNA sequences targeting SHMT1 or 2 were transiently transfected into cells, and mutant colonies from single clones were picked as described in Ducker et al., (2016) Reversal of Cytosolic One-Carbon Flux Compensates for Loss of the Mitochondrial Folate Pathway, Cell Metab 23, 1140-1153. SHMT1 deletion had no effect on cell growth either in cell culture or as subcutaneous xenografts in nude mice. In contrast, SHMT2 deletion cells grew slower in culture and as xenografts (FIG. 8A).

HCT-116 WT cells = assay: Cell growth assay (resazurin), HCT-116 wild type, with or without formate; assay type: cell-based, human; conditions: for rescue of effects on cell growth by addition of formate: HCT-116, formate
Protocol: as §1

Liver microsome assay = assay type: in vitro ADME; conditions: pooled male mouse liver microsomes, 2 μM
Protocol: The following master solution was prepared before compound addition:
Two separate experiments were performed as follows: a) With Cofactors (NADPH and UDPGA): 40 μL of 10 mM NADPH and 40 μL of 20 mM UDPGA were added to the incubations. The final concentrations of microsomes, NADPH and UDPGA were 0.5 mg/mL, 1 mM and 2 mM, respectively. b) Without Cofactors (NADPH and UDPGA): 10 μL of 20 mg/mL liver microsomes and 80 μL of ultra-pure water were added to the incubations. The final concentration of microsomes was 0.5 mg/mL. The mixture was pre-warmed at 37° C. for 5 minutes.
The reaction was started with the addition of 4 μL of 200 μM control compound or test compound solution. Verapamil was used as positive control in this study. The final concentration of test compound or control compound was 2 μM. The incubation solution was incubated in water bath at 37° C. Aliquots of 50 μL were taken from the reaction solution at 0.5, 5, 15, 30, 45 and 60 minutes. The reaction was stopped by the addition of 5 volumes of cold acetonitrile with IS (100 nM alprazolam, 200 nM caffeine and 100 nM tolbutamide). Samples were centrifuged at 3,220 g for 40 minutes. Aliquot of 100 μL of the supernatant was mixed with 100 μL of ultra-pure H2O and then used for LC-MS/MS analysis. The in vitro half-life (in vitro t1/2) was determined from the slope value of the LC-MS signal of the test compound.

human SHMT2 = human SHMT2 (Homo sapiens (Human), UniProt P34897); assay: SHMT2 in vitro enzymatic assay (coupled with excess MTHFD2, NADH absorption at 340 nm); assay type: biochemical
human SHMT2, sequence (P34897 30-504): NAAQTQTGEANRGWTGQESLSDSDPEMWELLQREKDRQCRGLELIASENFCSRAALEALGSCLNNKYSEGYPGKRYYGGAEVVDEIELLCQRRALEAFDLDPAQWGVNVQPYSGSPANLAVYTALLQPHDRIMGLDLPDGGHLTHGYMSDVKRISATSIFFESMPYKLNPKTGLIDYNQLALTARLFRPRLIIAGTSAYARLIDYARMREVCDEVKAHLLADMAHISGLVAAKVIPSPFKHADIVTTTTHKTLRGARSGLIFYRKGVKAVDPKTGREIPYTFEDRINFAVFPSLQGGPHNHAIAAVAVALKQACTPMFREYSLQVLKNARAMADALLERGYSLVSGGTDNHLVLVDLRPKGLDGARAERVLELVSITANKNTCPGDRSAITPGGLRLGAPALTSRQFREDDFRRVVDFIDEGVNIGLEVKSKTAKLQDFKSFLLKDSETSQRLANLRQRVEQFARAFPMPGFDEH
Protocol: (§2) For the SHMT1 and SHMT2 in vitro enzymatic assays, the rate of 5,10-methylene tetrahydrofolate formation catalyzed by SHMT1/2 was indirectly evaluated by coupling with excess MTHFD2, which converts NAD+ to NADH allowing for reaction monitoring by absorption at 340 nm. […] Inhibition of initial reaction velocity was determined by adding various inhibitors at different concentrations and monitored as described. IC50 may be calculated based on this assay.

human SHMT1 = human SHMT1 (Homo sapiens (Human), UniProt P34896); assay: SHMT1 in vitro enzymatic assay (coupled with excess MTHFD2, NADH absorption at 340 nm); assay type: biochemical
human SHMT1, sequence (P34896 whole entry): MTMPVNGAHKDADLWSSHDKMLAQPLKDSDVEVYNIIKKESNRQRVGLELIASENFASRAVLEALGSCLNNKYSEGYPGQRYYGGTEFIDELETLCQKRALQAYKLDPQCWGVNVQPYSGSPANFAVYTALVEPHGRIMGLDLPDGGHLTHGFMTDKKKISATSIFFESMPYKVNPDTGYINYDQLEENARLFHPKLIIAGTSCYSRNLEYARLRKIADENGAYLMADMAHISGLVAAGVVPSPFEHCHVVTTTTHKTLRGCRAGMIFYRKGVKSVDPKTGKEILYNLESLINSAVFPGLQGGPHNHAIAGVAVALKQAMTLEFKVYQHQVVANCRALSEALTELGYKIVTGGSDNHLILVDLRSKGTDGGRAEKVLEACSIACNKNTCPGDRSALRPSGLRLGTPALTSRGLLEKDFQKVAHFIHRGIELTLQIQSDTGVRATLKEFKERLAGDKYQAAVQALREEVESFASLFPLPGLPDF
Protocol: as §2

Su-DHL-4 cells [1] = assay: Growth of Su-DHL-4 cells in RPMI; assay type: cell-based, human; conditions: for cell growth (or death) over 48 h: Su-DHL-4, 5 μM
Protocol: Cells were stained with propidium iodide and FITC conjugated Annexin V. 10,000 events shown. […] All conditions included at least normal media glycine (10 mg/L) (mean±SD, n=3).
Co-culture with 1 mM formate restores nucleotide levels selectively in Jurkat cells (mean±SD, n=3-6). […] Note the low uptake in Su-DHL-4 cells (gly=glycine, GSH=glutathione) (mean±SD, n=3). […] The SHMT reaction makes two products, 5,10-methyleneTHF and glycine. When SHMT is inhibited, exogenous formate can be incorporated into the 1C cycle whereas in B-cells poor glycine uptake limits the ability of extracellular glycine to rescue. Strategies that further stress glycine availability augment the efficacy of SHMT inhibition.

8988T cells = assay: Growth of pancreatic cancer cell line 8988T; assay type: cell-based, human
Su-DHL-4 cells [2] = assay: Apoptosis by flow cytometry (Annexin V surface staining), Su-DHL-4; assay type: cell-based, human; conditions: for apoptotic fraction of cells: 24 hours
Excerpt: Apoptosis was enhanced by co-treatment with formate. In contrast, as expected, formate rescued Jurkat E6-1 leukemia cells from apoptosis (FIG. 11C). Without wishing to be bound by theory, it is hypothesized that the failure of formate to rescue growth in the DLBCL cell lines is due to a requirement for both glycine and 1C units made by SHMT in these cells. When glycine is limiting, formate can enhance the cytotoxicity of SHMT inhibition. […] Mechanistically, by supplying 5,10-methylene-THF, formate may drives residual SHMT enzymatic function in the […] direction.
In contrast, cell growth is further decreased in Su-DHL4 cells by addition of formate. This can be further exacerbated by removal of glycine from the media. […] Using flow cytometry, apoptosis of Su-DHL4 cells were studied with AnnexinV surface staining (FIGS. 12D and 12E).

SMILES: Cc1n[nH]c2c1C(c1cc(C#CCCC(=O)O)cc(C(F)(F)F)c1)(C(C)C)C(C#N)=C(N)O2 (centres unmarked) [Compound 4]
logP (LogP Value): 3.56

SMILES: Cc1n[nH]c2c1C(c1cc(C#CCCCN)cc(C(F)(F)F)c1)(C(C)C)C(C#N)=C(N)O2 (centres unmarked) [Compound 8]
logP (LogP Value): 2.72

SMILES: Cc1n[nH]c2c1C(c1cc(C#CCCC(N)=O)cc(C(F)(F)F)c1)(C(C)C)C(C#N)=C(N)O2 (centres unmarked) [Compound 11]
logP (LogP Value): 3.22

SMILES: Cc1n[nH]c2c1C(c1cc(C#CCCCO)cc(C(F)(F)F)c1)(C(C)C)C(C#N)=C(N)O2 (centres unmarked) [Compound 61, 6-amino-4-(3-(5-hydroxypent-1-yn-1-yl)-5-(trifluoromethyl)phenyl)-4-isopropyl-3-methyl-1,4-dihydropyrano[2,3-c]pyrazole-5-carbonitrile]
inhibition of growth of SHMT2 knock-out HCT116 cells versus native (HCT-116 ΔSHMT2 cells): increased potency
inhibition of growth (proliferation) of HCT116 cells (HCT-116 WT cells; native HCT116): inhibited growth

SMILES: Cc1n[nH]c2c1C(c1cc(C#N)cc(C#CCCC(=O)O)c1)(C(C)C)C(C#N)=C(N)O2 (centres unmarked) [Compound 68]
logP (LogP Value): 2.37

SMILES: Cc1n[nH]c2c1C(c1cc(C#CCCC(=O)N[C@@H](CCC(=O)O)C(=O)O)cc(C(F)(F)F)c1)(C(C)C)C(C#N)=C(N)O2 (some centres unmarked) [Compound 69]
logP (LogP Value): 2.49

SMILES: Cc1n[nH]c2c1C(c1cc(C#N)cc(C#CCCCO)c1)(C(C)C)C(C#N)=C(N)O2 (centres unmarked) [Compound 71]
logP (LogP Value): 2.89

SMILES: Cc1n[nH]c2c1C(c1cc(C#CCCCO)cc(CO)c1)(C(C)C)C(C#N)=C(N)O2 (centres unmarked) [Compound 74]
CLint (replicate 2) (Liver microsome assay): 67.96 μL/min/mg protein

SMILES: Cc1n[nH]c2c1C(c1cc(N3CCCC3)cc(C(F)(F)F)c1)(C(C)C)C(C#N)=C(N)O2 (centres unmarked) [HK-X1]
IC50 (human SHMT1): 13 nM
rescue of effects on cell growth by addition of formate (HCT-116 WT cells): rescued
IC50 (human SHMT2): 66 nM

SMILES: Cc1n[nH]c2c1C(c1cc(CO)cc(-c3ccccc3)c1)(C(C)C)C(C#N)=C(N)O2 (centres unmarked) [HK-X2]
IC70 (Su-DHL-4 cells [1]; SU-DHL4, RPMI): 5000 nM
cell growth (or death) over 48 h (Su-DHL-4 cells [1]; formate (1 mM) added): fully cytostatic
cell growth (or death) over 48 h (Su-DHL-4 cells [1]; formate added and glycine removed): significant cell death
rescue of effects on cell growth by addition of formate (HCT-116 WT cells): rescued
concentration that impairs cell growth (8988T cells): < 100 nM
apoptotic fraction of cells (Su-DHL-4 cells [2]; Su-DHL4, inhibitor alone): 8%
apoptotic fraction of cells (Su-DHL-4 cells [2]; Su-DHL4, inhibitor in the presence of formate): 15%
apoptosis measured by Annexin V surface staining (Su-DHL-4 cells [2]; Su-DHL-4, co-treatment with formate): enhanced
apoptosis measured by Annexin V surface staining (Su-DHL-4 cells [2]; Su-DHL-4, inhibitor alone): induced apoptosis

More lines, now with the values ahead:

IC50 (human SHMT2): 1190 nM
SMILES: Cc1n[nH]c2c1C(c1cccc(Cl)c1)(C1CCC1)C(C#N)=C(N)O2 (centres unmarked) [HK-3]

IC50 (human SHMT2): 4580 nM
SMILES: COc1cccc(C2(C(C)C)C(C#N)=C(N)Oc3[nH]nc(C)c32)c1 (centres unmarked) [HK-6]

IC50 (human SHMT2): 400 nM
SMILES: Cc1n[nH]c2c1C(c1cccc(Cl)c1)(C(C)C)C(C#N)=C(N)O2 (centres unmarked) [HK-7]

IC50 (human SHMT2): 3460 nM
SMILES: COc1cc(Cl)cc(C2(C3CCC3)C(C#N)=C(N)Oc3[nH]nc(C)c32)c1 (centres unmarked) [HK-9]

IC50 (human SHMT1): 593 nM
IC50 (human SHMT2): 1190 nM
SMILES: Cc1n[nH]c2c1C(c1cc(Cl)cc(Cl)c1)(C1CCC1)C(C#N)=C(N)O2 (centres unmarked) [HK-10]

IC50 (human SHMT2): 100 nM
SMILES: Cc1n[nH]c2c1C(c1cc(Cl)cc(C(F)(F)F)c1)(C1CCC1)C(C#N)=C(N)O2 (centres unmarked) [HK-11]

IC50 (human SHMT1): 206 nM
IC50 (human SHMT2): 168 nM
SMILES: Cc1n[nH]c2c1C(c1cc(C(F)(F)F)cc(C(F)(F)F)c1)(C1CCC1)C(C#N)=C(N)O2 (centres unmarked) [HK-12]

IC50 (human SHMT2): 500 nM
SMILES: COc1cc(Cl)cc(C2(C(C)C)C(C#N)=C(N)Oc3[nH]nc(C)c32)c1 (centres unmarked) [HK-13]

IC50 (human SHMT1): 67 nM
IC50 (human SHMT2): 131 nM
SMILES: Cc1n[nH]c2c1C(c1cc(Cl)cc(Cl)c1)(C(C)C)C(C#N)=C(N)O2 (centres unmarked) [HK-14]

IC50 (human SHMT1): 20 nM
IC50 (human SHMT2): 35 nM
SMILES: Cc1n[nH]c2c1C(c1cc(Cl)cc(C(F)(F)F)c1)(C(C)C)C(C#N)=C(N)O2 (centres unmarked) [HK-15]
